Measured values taken from the NIST ThermoML archive (doi:10.1021/je900732r).
± gives the expanded uncertainty stated by the source.

Test: mn = molality of the nth substance listed, in mol/kg
Settings: 101 kPa, Liquid

C[S+](C)[O-] [dimethyl sulfoxide] + [Co+2].[O-][Cl+3]([O-])([O-])[O-].[O-][Cl+3]([O-])([O-])[O-]
m2 = 0
Settings | mass density [kg/m3]
293.15 K | 1100.22 ± 0.56
298.15 K | 1095.19 ± 0.55
303.15 K | 1090.18 ± 0.54
313.15 K | 1080.12 ± 0.53
323.15 K | 1070.08 ± 0.51
333.15 K | 1060.03 ± 0.49

C[S+](C)[O-] [dimethyl sulfoxide] + [Cu+2].[O-][Cl+3]([O-])([O-])[O-].[O-][Cl+3]([O-])([O-])[O-]
m2 = 0
Settings | mass density [kg/m3]
293.15 K | 1100.23 ± 0.56
298.15 K | 1095.2 ± 0.56
303.15 K | 1090.18 ± 0.55
313.15 K | 1080.12 ± 0.53
323.15 K | 1070.08 ± 0.51
333.15 K | 1060.04 ± 0.49

C[S+](C)[O-] [dimethyl sulfoxide] + [Mn+2].[O-][Cl+3]([O-])([O-])[O-].[O-][Cl+3]([O-])([O-])[O-]
m2 = 0
Settings | mass density [kg/m3]
293.15 K | 1100.22 ± 0.56
298.15 K | 1095.19 ± 0.55
303.15 K | 1090.17 ± 0.54
313.15 K | 1080.12 ± 0.52
323.15 K | 1070.08 ± 0.5
333.15 K | 1060.04 ± 0.49

C[S+](C)[O-] [dimethyl sulfoxide] + [Ni+2].[O-][Cl+3]([O-])([O-])[O-].[O-][Cl+3]([O-])([O-])[O-]
m2 = 0
Settings | mass density [kg/m3]
293.15 K | 1100.22 ± 0.56
298.15 K | 1095.19 ± 0.55
303.15 K | 1090.17 ± 0.54
313.15 K | 1080.12 ± 0.53
323.15 K | 1070.08 ± 0.51
333.15 K | 1060.04 ± 0.49

C[S+](C)[O-] [dimethyl sulfoxide] + [O-][Cl+3]([O-])([O-])[O-].[O-][Cl+3]([O-])([O-])[O-].[Zn+2]
m2 = 0
Settings | mass density [kg/m3]
293.15 K | 1100.23 ± 0.56
298.15 K | 1095.2 ± 0.56
303.15 K | 1090.18 ± 0.55
313.15 K | 1080.12 ± 0.53
323.15 K | 1070.08 ± 0.51
333.15 K | 1060.04 ± 0.49

[Mn+2].[O-][Cl+3]([O-])([O-])[O-].[O-][Cl+3]([O-])([O-])[O-] [manganese (II) perchlorate] + C[S+](C)[O-]
mass density [kg/m3]
Settings | 293.15 K | 298.15 K | 303.15 K | 313.15 K | 323.15 K | 333.15 K
m1 = 0.01626 | 1103.52 ± 0.57 | 1098.5 ± 0.56 | 1093.49 ± 0.55 | 1083.46 ± 0.53 | 1073.44 ± 0.51 | 1063.42 ± 0.49
m1 = 0.0211 | 1104.5 ± 0.57 | 1099.48 ± 0.56 | 1094.47 ± 0.55 | 1084.45 ± 0.53 | 1074.44 ± 0.52 | 1064.43 ± 0.5
m1 = 0.02843 | 1105.99 ± 0.57 | 1100.98 ± 0.56 | 1095.97 ± 0.55 | 1085.96 ± 0.54 | 1075.96 ± 0.52 | 1065.96 ± 0.5
m1 = 0.037 | 1107.74 ± 0.58 | 1102.73 ± 0.57 | 1097.73 ± 0.56 | 1087.73 ± 0.54 | 1077.74 ± 0.52 | 1067.75 ± 0.51
m1 = 0.04758 | 1109.9 ± 0.58 | 1104.9 ± 0.57 | 1099.91 ± 0.56 | 1089.92 ± 0.55 | 1079.94 ± 0.53 | 1069.97 ± 0.51
m1 = 0.05763 | 1111.96 ± 0.59 | 1106.97 ± 0.58 | 1101.98 ± 0.57 | 1092.01 ± 0.55 | 1082.05 ± 0.53 | 1072.09 ± 0.52
m1 = 0.07358 | 1115.24 ± 0.6 | 1110.26 ± 0.59 | 1105.28 ± 0.58 | 1095.33 ± 0.56 | 1085.39 ± 0.54 | 1075.45 ± 0.52
m1 = 0.09456 | 1119.59 ± 0.61 | 1114.62 ± 0.6 | 1109.65 ± 0.59 | 1099.73 ± 0.57 | 1089.82 ± 0.55 | 1079.91 ± 0.54
m1 = 0.1139 | 1123.62 ± 0.62 | 1118.65 ± 0.61 | 1113.7 ± 0.6 | 1103.8 ± 0.58 | 1093.92 ± 0.56 | 1084.04 ± 0.55
m1 = 0.1337 | 1127.77 ± 0.63 | 1122.82 ± 0.62 | 1117.87 ± 0.61 | 1108 ± 0.59 | 1098.14 ± 0.57 | 1088.29 ± 0.56
m1 = 0.1569 | 1132.59 ± 0.64 | 1127.65 ± 0.63 | 1122.73 ± 0.62 | 1112.88 ± 0.6 | 1103.06 ± 0.59 | 1093.24 ± 0.57
m1 = 0.1754 | 1136.6 ± 0.65 | 1131.67 ± 0.64 | 1126.75 ± 0.63 | 1116.94 ± 0.61 | 1107.13 ± 0.6 | 1097.34 ± 0.58

CO [methanol] + O=S(=O)([O-])C(F)(F)F.O=S(=O)([O-])C(F)(F)F.[Cu+2]
m2 = 0
Settings | mass density [kg/m3]
283.15 K | 800.548 ± 0.5
288.15 K | 795.857 ± 0.51
293.15 K | 791.162 ± 0.51
298.15 K | 786.452 ± 0.52
303.15 K | 781.722 ± 0.52
308.15 K | 776.978 ± 0.53
313.15 K | 772.2 ± 0.54

CO [methanol] + [Co+2].[O-][Cl+3]([O-])([O-])[O-].[O-][Cl+3]([O-])([O-])[O-]
m2 = 0
Settings | mass density [kg/m3]
283.15 K | 800.55 ± 0.48
288.15 K | 795.872 ± 0.49
293.15 K | 791.172 ± 0.5
298.15 K | 786.464 ± 0.5
303.15 K | 781.742 ± 0.51
308.15 K | 776.992 ± 0.52
313.15 K | 772.214 ± 0.52

CO [methanol] + [Ni+2].[O-][Cl+3]([O-])([O-])[O-].[O-][Cl+3]([O-])([O-])[O-]
m2 = 0
Settings | mass density [kg/m3]
283.15 K | 800.541 ± 0.48
288.15 K | 795.866 ± 0.49
293.15 K | 791.169 ± 0.5
298.15 K | 786.46 ± 0.51
303.15 K | 781.733 ± 0.51
308.15 K | 776.979 ± 0.52
313.15 K | 772.189 ± 0.53
